According to patent publication EP2769722A1 (Ruprecht-Karls-Universität Heidelberg, priority 2013, dated 2014):
Counter-ions that a name gives are not always drawn.

Target: T1, CA (Human immunodeficiency virus type 1 group M subtype B, UniProt P12493)
T1 construct: a fusion protein of CA with glutathione-S-transferase (CA-GST)
Test: AlphaScreen: inhibition of CAI-biotin peptide binding to CA-GST
Set-up: species or system HIV-1
Conditions: inhibition of CAI binding to CA (CA-GST fusion); compounds screened at 0.5-100 µM; read-out: α screen IC50
Description: The AlphaScreen experiments are performed using Perkin Elmer Enspire plate reader in white 96-well ProxiPlates and PBS supplemented with 0.05% Tween20, 2mM DTT, 2% DMSO. First, Streptavidin-coated Donor beads are used to capture the CAI-biotin peptide. In the other solution, a fusion protein of CA with glutathione-S-transferase (CA-GST) is mixed with GSH Acceptor beads. Both mixtures were incubated and then mixed together. To test the ability of prepared organic compounds to inhibit the CAI binding to CA, they are screened at concentrations between 0.5-100 µM and IC50 values are calculated from the influenced signals.
Upon illumination by laser at 680 nm, Donor beads containing the photosensitizer phthalocyanine convert ambient oxygen to an excited form of singlet oxygen ^1O2. Singlet oxygen can within its half-life of ∼ 4µs diffuse approximately 200 nm in solution. If an Acceptor bead is within that proximity, which is mostly upon CA:CAI interaction, energy is transferred from the singlet oxygen to thioxene derivates within the Acceptor and signal at 520 - 620 nm is emitted. […] Table 4: Synthesized and tested compounds

| Structure (SMILES) | IC50 [µM] |
| --- | --- |
| CC(=O)c1cccc(Nc2ccnc(-c3cccnc3)n2)c1 [AMR-726, 1-(3-((2-(pyridin-3-yi)pyrimidin-4-yl)amino)phenyl)ethanone hydrochloride] | 39 |
| CCOC(=O)c1ccc(Nc2cc(C)nc(-c3cccnc3)n2)cc1 [AMR-778, ethyl 4-((6-methyl-2-pyridin-3-yl)pyrimidin-4-yl)amino)benzoate hydrochloride] | 21 |
| Fc1cc(Nc2ccnc(-c3cccnc3)n2)cc(F)c1F [KP-351, N-(3,4,5-trifluorophenyl)-2-(pyridin-3-yl)pyrimidin-4-amine dihydrochloride] | 60 |
| Fc1ccc(Nc2ccnc(-c3cncc(Br)c3)n2)cc1F [KP-355, 2-(5-Bromopyridin-3-yl)-N-(3,4-difluorophenyl)pyrimidin-4-amine hydrochloride] | > 100 |
| CCOC(=O)c1ccc(Nc2cc(-c3cccnc3Cl)ncn2)cc1 [KP-369, Ethyl 4-{[6-(2-chloropyridin-3-yl)pyrimidin-4-yl]amino}benzoate hydrochloride] | > 100 |
| CC(=O)c1ccc(F)c(Nc2cc(C)nc(-c3cccnc3)n2)c1 [AMR-838, 1-(4-fluoro-3-((6-methyl-2-(pyridin-3-yl)pyrimidin-4-yl)amino)phenyl)ethanone hydrochloride] | > 100 |
| CC(=O)c1ccc(Nc2cc(C(F)(F)F)nc(-c3cccnc3)n2)cc1 [AMR-743, 1-(4-((2-(pyridin-3-yl)-6-(trifluoromethyl)pyrimidin-4-yl)amino)phenyl)ethanone hydrochloride] | > 100 |
| O=C(O)c1ccc(Nc2ccnc(-c3cccnc3)n2)cc1Cl [AMR-802, 2-chloro-4-((2-(pyridin-3-yl)pyrimidin-4-yl)amino)benzoic acid hydrochloride] | 25 |
| Cc1cc(Nc2cc(C(=O)NCCF)ccc2F)nc(-c2cccnc2)n1 [AMR-832, 4-fluoro-N-(2-fluoroethyl)-3-((6-methyl-2-(pyrldin-3-yl)pyrimidin-4-yl)amino)benzamide hydrochloride] | 52 |
| COc1cc(Nc2cc(-c3cccnc3Cl)ncn2)cc(OC)c1OC [KP-377, 6-(2-Chloropyridin-3-yl)-N-(3,4,5-trimethoxyphenyl)pyrimidin-4-amine hydrochloride] | > 100 |
| O=C(NCCF)c1cc(Nc2ccnc(-c3cccnc3)n2)ccc1F [AMR-816, 2-fluoro-N-(2-fluoroethyl)-5-((2-(pyridin-3-yl)pyrimidin-4-yl)amino)benzamide dihydrochloride] | 68 |
| CC(=O)c1cc(Nc2cc(C)nc(-c3cccnc3)n2)ccc1F [AMR-839, 1-(2-fluoro-5-((6-methyl-2-(pyridin-3-yl)pyrimidin-4-yl)amino)phenyl)ethanone hydrochloride] | 9 |
| Fc1cc(Nc2cc(-c3cccnc3Cl)ncn2)cc(F)c1F [KP-373, 6-(2-Chloropyridin-3-yl)-N-(3,4,5-trifluorophenyl)pyrimidin-4-amine hydrochloride] | > 100 |
| CCOC(=O)c1ccc(Nc2ccnc(-c3cccnc3)n2)c(F)c1 [AMR-823, ethyl 3-fluoro-4-((2-(pyridin-3-yl)pyrimidin-4-yl)amino)benzoate hydrochloride] | 30 |
| O=C(NCCF)c1ccc(Nc2ccnc(-c3ccncc3)n2)cc1 [AMR-763, N-(2-fluoroethyl)-4-((2-(pyridin-4-yl)pyrimidin-4-yl)amino)benzamide hydrochloride] | > 100 |
| Fc1cc(Nc2ccnc(-c3cncc(Br)c3)n2)cc(F)c1F [KP-359, 2-(5-Bromopyridin-3-yl)-N-(3,4,5-trifluorophenyl)pyrimidin-4-amine hydrochloride] | > 100 |
| Fc1ccc(Nc2cc(-c3cccnc3Cl)ncn2)cc1F [KP-374, 6-(2-Chloropyridin-3-yl)-N-(3,4-difluorophenyl)pyrimidin-4-amine hydrochloride] | > 100 |
| Cc1ccc(NC(=O)c2cccc(C(F)(F)F)c2)cc1Nc1cc(-c2cccnc2Cl)ncn1 [KP-380, N-(3-(6-(2-chloropyridin-3-yl)pyrimidin-4-ylamino)-4-methylphenyl)-3-(trifluoromethyl)benzamide hydrochloride] | > 100 |
| Cn1nnc2cc(Nc3ccnc(-c4cncc(Br)c4)n3)ccc21 [KP-364, N-[2-(5-bromopyridin-3-yl)pyrimidin-4-yl]-1-methyl-1H-benzotriazol-5-amine dihydrochloride] | 14 |
| CCOC(=O)c1ccc(Nc2ccnc(-c3ccncc3)n2)cc1 [AMR-747, ethyl 4-((2-(pyridin-4-yl)pyrimidin-4-yl)amino)benzoate hydrochloride] | 28 |
| CC(=O)c1ccc(Nc2ccnc(-c3cccnc3)n2)cc1 [AMR-725, 1.-(4-((2-(pyridin-3-yl)pyrimidin-4-yl)amino)phenyl)ethanone hydrochloride] | 53 |

| Structure (SMILES) | IC50 [µM] |
| --- | --- |
| CC(=O)c1ccc(Nc2cc(C)nc(-c3cccnc3)n2)cc1 [AMR-794, 1-(4-((6-methyl-2-(pyridin-3-yl)pyrimidin-4-yl)amino)phenyl)ethanone hydrochloride] | 12 |
| Fc1ccc(Nc2ccnc(-c3ccncc3)n2)cc1F [KP-360, N-(3,4-difluorophenyl)-2-(pyridin-4-yl)pyrimidin-4-amine dihydrochloride] | 81 |
| CC(=O)c1ccc(Nc2ccnc(-c3ccncc3)n2)cc1 [AMR-748, 1-(4-((2-(pyridin-4-yl)pyrimidin-4-yl)amino)phenyl)ethanone hydrochloride] | > 100 |
| FCCNc1ccnc(-c2ccncc2)n1 [AMR-758, N-(2-fluoroethyl)-2-(pyridin-4-yl)pyrimidin-4-amine hydrochloride] | > 100 |
| O=C(NCCF)c1ccc(Nc2ccnc(-c3cccnc3)n2)cc1F [AMR-831, 2-fluoro-N-(2-fluoroethyl)-4-((2-(pyridin-3-yl)pyrimidin-4-yl)amino)benzamide hydrochloride] | 43 |
| O=C(NCCF)c1ccc(Nc2ccnc(-c3cccnc3)n2)c(F)c1 [AMR-825, 3-fluoro-N-(2-fluoroethyl)-4-((2-(pyridin-3-yl)pyrimidin-4-yl)amino)benzamide hydrochloride] | 73 |
| CCOC(=O)c1ccc(Nc2ccnc(-c3cccnc3)n2)cc1Cl [hydrochloride] | 31 |
| CCOC(=O)c1ccc(Nc2cc(C(F)(F)F)nc(-c3cccnc3)n2)cc1 [AMR-742, ethyl 4-((2-(pyridin-3-yl)-6-(trifluoromethyl)pyrimidin-4-yl)amino)benzoate hydrochloride] | > 100 |
| Cc1ccc(NC(=O)c2cccc(C(F)(F)F)c2)cc1Nc1ccnc(-c2cncc(Br)c2)n1 [KP-384, N-(3-(2-(5-bromopyridin-3-yl)pyrimidin-4-ylamino-4-methylphenyl)-3-(trifluoromethyl)benzamide hydrochloride] | > 100 |
| Cc1ccc(NC(=O)c2cccc(C(F)(F)F)c2)cc1Nc1ccnc(-c2cccnc2)n1 [KP-385, N-(3-(2-(pyridin-3-yl)pyritnidin-4-ylamino)-4-methylphenyl)-3-(trifluoromethyl)benzamide hydrochloride] | > 100 |
| CCN(CC)CCNC(=O)c1ccc(Nc2ccnc(-c3cccnc3)n2)cc1 [AMR-822, N-(2-(diethylamino)ethyl)-4-((2-(pyridin-3-yl)pyrimidin-4-yl)amino)benzamide dihydrochloride] | > 100 |
| CCN(CC)CCOC(=O)c1ccc(Nc2ccnc(-c3cccnc3)n2)cc1F [AMR-827, 2-(diethylamino)ethyl 2-fluoro-4-{(2-(pyridin-3-yl)pyrimidin-4-yl)amino)benzoate hydrochloride] | > 100 |
| Fc1ccc(Nc2ccnc(-c3cccnc3)n2)cc1F [KP-343, N-(3,4-difluorophenyl)-2-(pyridin-3-yl)pyrimidin-4-amine dihydrochloride] | 38 |
| CCOC(=O)c1cccc(Nc2ccnc(-c3ccncc3)n2)c1 [AMR-759, ethyl 3-((2-(pyridin-4-yl)pyrimidin-4-yl)amino)benzoate hydrochloride] | > 100 |
| O=C(NCC(F)(F)F)c1ccc(Nc2ccnc(-c3cccnc3)n2)cc1 [AMR-771, 4-((2-(pyridin-3-yl)pyrimidin-4-yl)amino)-N-(2,2,2-trifluoroethyl)benzamide hydrochloride] | 55 |
| CCOC(=O)c1ccccc1Nc1ccnc(-c2cncc(Br)c2)n1 [KP-363, Ethyl 2-{[2-(5-bromopyridin-3-yl)pyrimidin-4-yl]amino}benzoate hydrochloride] | 58 |
| CCOC(=O)c1ccc(Nc2ccnc(-c3cncc(Br)c3)n2)cc1 [KP-352, Ethyl 4-{[2-(5-bromopyridin-3-yl)pyrinudm-4-yl]amino}benzoate hydrochloride] | > 100 |
| Cn1nnc2cc(Nc3cc(-c4cccnc4Cl)ncn3)ccc21 [KP-375, N-[6-(2-Chloropyridin-3-yl)pyrimidin-4-yl]-1-methyl-1H-benzotriazol-5-amine hemihydrochloride] | > 100 |
| CC(=O)c1cccc(Nc2cc(C)nc(-c3cccnc3)n2)c1 [AMR-830, 1-(3-((6-methyl-2-(pyridin-3-yl)pyrimidin-4-yl)amino)phenyl)ethanone hydrochloride] | 10 |
| Cc1cc(Nc2ccc(C(=O)NCCF)cc2)nc(-c2cccnc2)n1 [AMR-795, N-(2-fluoroethyl)-4-((6-methyl-2-(pyridin-3-yl)pyrimidin-4-yl)amino)benzamide hydrochloride] | 8 |
